Test results reported in US20080206744A1, “Functional Genomics and Gene Trapping in Haploid or Hypodiploid Cells” (priority 2004, published 2008).

Tested on: palmitoylation of GAP43:GFP in MDCK cells
Assay: Localization of the palmitoylation reporter GAP43:GFP at the plasma membrane, by microscopy and HTM algorithm
Format: cell-based
Details: for effect on palmitoylation / PM localization of GAP43:GFP: MDCK cells transiently transfected with GAP43:GFP, incubation in 100 μM 2BP
Description: FIGS. 2A-2D provide characterization of the reporter of S-palmitoylation. […] Cells in FIGS. 2B, 2C and 2D are representative of many having the same morphology.
FIGS. 5A-5D illustrate the simple case of quantifying whether or not GAP43:GFP is on the PM or in the cytoplasm using the HTM algorithm. In this analysis, MDCK cells (the same images as presented in FIGS. 2A-2D), transiently transfected with GFP alone are presented in FIG. 5A; transiently transfected with GAP43:GFP are presented in FIG. 5B; and transiently transfected with GAP43:GFP in the presence of 100 μM 2BP are presented in FIG. 5C.
FIG. 6 presents a quantitative analysis of the time course of translocation of GAP43:GFP from the plasma membrane in response to 100 μM 2BP: residence half life of palmitoylation. MDCK cells stably expressing GAP43:GFP were exposed to 100 μM 2BP for 6 hours. During this time, the same field of view of cells was imaged repeatedly in two channels Hoechst/nucleus (see FIG. 6A) and GFP/PM (see FIG. 6B) on the EIDAQ100 (the three images: 6A, 6B and 6C are at time 0). The PM mask (green lines) defined by the program is shown in FIG. 6C; the nucleus is delimited by red lines. By determining the average fluorescence intensity of the area defined by the PM mask (see FIG. 6D), PM labeling was reduced by 80% from the maximum (or starting) density during the 6 hour period.
This algorithm is able to make a simple binary decision of whether GAP43:GFP is on the PM or in the cytoplasm (see FIG. 5) as well as fine incremental determinations (see FIG. 6) of the quantity of fluorescence on the PM, thereby extending the capability beyond what is necessary to score the primary screen for trapped genes. Two important questions are answered here. Data in FIGS. 5A-5D illustrate that the algorithm is sufficient to ensure success in a screen to find genes critical in the pathway for palmitoylation of the reporter in an ICR-2A reporter cell line.

CCCCCCCCCCCCCCC(Br)C(=O)O (stereo not drawn) [2BP, 2-bromopalmitate]
reduction of PM labeling (average fluorescence intensity of the area defined by the PM mask) from the maximum (starting) density (MDCK cells stably expressing GAP43:GFP, 100 μM 2BP, 6 hour period, EIDAQ100 imaging): 80% | effect on palmitoylation / PM localization of GAP43:GFP: localization to the PM has been inhibited | effect on palmitoylation / PM localization of GAP43:GFP (listed as 2-bromopalmitate): palmitoylation is inhibited
